Results: US20090304625A1, “MODULATORS OF CARDIAC CELL HYPERTROPHY AND HYPERPLASIA” (priority 2006, published 2009)

Assays:
[1] = system: subcutaneous xenograft tumors; conditions: cited from earlier work; for growth of tumor cells grown as subcutaneous xenografts: athymic mice
[2] = system: human umbilical vein endothelial cells; conditions: in culture, cited from earlier work
[3] = system: tumor angiogenesis; conditions: mouse tumor xenograft models; cited from earlier work
[4] = system: tumor cells grown in culture; conditions: cited from earlier work
[5] = system: mast cells (MCs); experiment: Mast cell density in LV of WT mice treated with cromolyn; type: in vivo, mouse; conditions: cromolyn 60 mg/kg/day
Text: (§1) Induction of pressure overload: At eight weeks of age, WT or Kit^w/Kit^w-v mice were subjected to suprarenal aortic constriction (SAC) to induce hypertension and, thus, pressure overload, or to sham operation, as previously described (M. Li et al. (2004)). One group (both SAC and sham-operated animals) was allowed to recover from surgery for 2 days and animals surviving this peri-operative period were then followed for survival over the next 28 days. A second group were sacrificed at 3, 7 or 14 days after SAC, and a third group was treated with the mast cell stabilizer, sodium chromoglycate (60 mg/kg/day, intraperitoneal, osmotic minipump) for one week before and then for the 7 days after surgery, at which time they were sacrificed.

[6] = system: c-kit+ CSCs; experiment: c-kit+ cardiac stem cell numbers in LV of 7-day-SAC WT mice; type: in vivo, mouse; conditions: cromolyn 60 mg/kg/day started 7 days before SAC, n=5
Text: as §1, with “sacrificed. […] There are several different but overlapping types of CSCs, which are grouped according to cell surface markers, e.g., ckit+, Sca1+, MDR1+, isl1+, e-kit+ CSCs differentiated into cardiomyocytes contributing to repair of a damaged heart. […] In the W/W^v- and WT-SAC LV myocardium, c-kit^+ CSCs occurred individually, in pairs or in large clusters. c-kit^+ CSC clusters were not seen in the LVs of WT- or […] were rare in WT-SAC mice. Compared to sham controls, 7 days of SAC increased c-kit^+ CSCs 19-fold in the […]<0.001; FIG. 6A). Compared to the WT-SAC LV, the increase was 5.5-fold (P<0.01; FIG. 6A). […]” for “sacrificed.”

Structure (SMILES)	growth of tumor cells grown as subcutaneous xenografts [1]	VEGF-induced proliferation of human umbilical vein endothelial cells ([2]; VEGF-induced)	tumor angiogenesis in vivo [3]	growth of tumor cells grown in culture [4]	regression of established xenograft tumors ([1]; mice)	VEGF- and FGF-induced proliferation of human umbilical vein endothelial cells ([2]; VEGF- and FGF-induced)	reduction of MC density [5]	MC density ([5]; n=4) [MCs/mm^2]	c-kit+ CSCs [6] [CSCs/mm^2]
Cc1cc(C)c(/C=C2\C(=O)Nc3ccccc32)[nH]1 [SU5416]	inhibit the growth	inhibits	inhibit tumor angiogenesis in vivo	neither compound potently inhibits	–	–	–	–	–
Cc1[nH]c(/C=C2\C(=O)Nc3ccccc32)c(C)c1CCC(=O)O [SU6668]	inhibit the growth	–	inhibit tumor angiogenesis in vivo	neither compound potently inhibits	causes regression	inhibits	–	–	–
O=C(O)c1cc(=O)c2c(OCC(O)COc3cccc4oc(C(=O)O)cc(=O)c34)cccc2o1 [cromolyn, sodium chromoglycate]	–	–	–	–	–	–	approximately 80%	0.45±0.2	38±3
